{
  "source": "patent US20080194630A1",
  "about": "“LTA4H modulators and uses thereof” (priority 2007, published 2008)",
  "key": {"[1]": {"test_system": "LTB4 production in murine whole blood (LTA4H)", "test": "LTB4 production by calcium ionophore-stimulated murine blood for LTA4H inhibitor activity", "assay_type": "cell-based, CD-1 mice", "details": "CD-1 mouse blood diluted 1:15, calcium ionophore A23187 20 ng/mL, LTB4 by enzyme-linked immunoassay"}, "[2]": {"test_system": "ex vivo stimulated LTB4 production", "test": "Murine arachidonic acid-induced inflammation model: ex vivo stimulated LTB4 production in blood", "parameters": "species or system female Balb/c mice", "details": "30 mg/kg oral gavage, blood taken 3 h after arachidonic acid, ex vivo A23187 stimulation, vs animals without inhibitor", "protocol": "Murine arachidonic acid-induced inflammation model\nLTA4H inhibitor compounds of the present invention were dissolved in 20% cyclodextran/H2O at a concentration of 3 mg/mL. The solutions were administered by oral gavage to female Balb/c mice weighing approximately 20 grams each (0.2 mL per mouse, 30 mg of LTA4H inhibitor compound per kg). Sixty minutes after being administered an LTA4 inhibitor, each mouse received topical application of 20 μL of arachidonic acid (100 mg/mL in acetone) to the left ear and 20 μL of acetone only to the right ear. After 3 h, the mice were sacrificed, blood was withdrawn in heparinized syringes, and 8 mm ear biopsies were taken. […]\nOne hundred-microliter aliquots of heparinized blood were added to wells of a microtiter plate, along with equal volumes of RPMI-1640 medium, and calcium ionophore A23187 was added to each sample well (final concentration=20 ng/μL). […] Supernatants were analyzed for LTB4 by a commercially available enzyme-linked immunoassay (Cayman Chemical Co.) in accordance with the manufacturer's instructions. The percent inhibition of ex vivo stimulated LTB4 production (% Inh. LTB4) was determined by comparison to animals treated identically except that the solution admininstered by oral gavage was devoid of inhibitor compound."}, "[3]": {"test_system": "neutrophil influx (myeloperoxidase, MPO)", "test": "Murine arachidonic acid-induced inflammation model: neutrophil influx in ear (myeloperoxidase activity)", "assay_type": "in vivo, female Balb/c mice", "details": "Mus musculus, 30 mg/kg oral gavage 60 min before topical arachidonic acid, ear biopsy after 3 h, vs animals without inhibitor", "protocol": "Murine arachidonic acid-induced inflammation model LTA4H inhibitor compounds of the present invention were dissolved in 20% cyclodextran/H2O at a concentration of 3 mg/mL. The solutions were administered by oral gavage to female Balb/c mice weighing approximately 20 grams each (0.2 mL per mouse, 30 mg of LTA4H inhibitor compound per kg). Sixty minutes after being administered an LTA4 inhibitor, each mouse received topical application of 20 μL of arachidonic acid (100 mg/mL in acetone) to the left ear and 20 μL of acetone only to the right ear. After 3 h, the mice were sacrificed, blood was withdrawn in heparinized syringes, and 8 mm ear biopsies were taken. Ear biopsies were weighed to determine edema and then frozen at -80° C. until needed for determination of neutrophil influx. Neutrophil influx was quantified by measuring the activity of myeloperoxidase (MPO), a neutrophil-specific enzyme. […] Debris was removed by centrifugation at 14000×g for 10 min. […] The microtiter plate contents were held at room temperature for 1 h. […] H2SO4 to each sample well, and the myeloperoxidase activity in each sample was determined from the absorbance at 405 nm. […] The percent inhibition of neutrophil influx (% Inh. MPO) by compounds of the invention was determined by comparison to animals treated identically, except that the solution administered by oral gavage was devoid of inhibitor compound."}, "[4]": {"test_system": "ionophore-induced LTB4 production", "details": "oral administration; cited from earlier work"}, "[5]": {"test_system": "ionophore-induced LTB4 production", "details": "oral administration; cited from earlier work", "remark": "listed apart in the source"}, "atopic dermatitis": {"test_system": "atopic dermatitis", "details": "small open-label trial in AD; cited from earlier work"}, "pruritus": {"test_system": "pruritus", "details": "human, in vivo; cited from earlier work"}},
  "note": "pIC50: −log10 of the molar value.",
  "data": [
    {"smiles": "CC(C)N(CCC(=O)O)CCc1ccc(Oc2nc3ccccc3s2)cc1", "note": "[Example 180, 3-({2-[4-(Benzothiazol-2-yloxy)-phenyl]-ethyl}-isopropyl-amino)-propionic acid]", "values": [
      {"measurement": "pIC50", "setting": "[1]", "value": 7.82},
      {"measurement": "inhibition at 30 mg/kg", "setting": "[2]; Mus musculus, read-out: % Inh. LTB4", "value": 87, "unit": "%"},
      {"measurement": "inhibition at 30 mg/kg", "setting": "[3]", "value": 87, "unit": "%"}
    ]},
    {"smiles": "O=C(O)C1CCN(Cc2ccc(Oc3nc4ccccc4s3)cc2)CC1", "note": "[Example 250, 1-[4-(Benzothiazol-2-yloxy)-benzyl]-piperidine-4-carboxylic acid]", "values": [
      {"measurement": "% Inh. LTB4", "setting": "[2]", "value": 80, "unit": "%"}
    ]},
    {"smiles": "CN(CCCOc1ccc(Cc2ccccc2)cc1)CCC(=O)O.Cl", "note": "[SC57461]", "values": [
      {"measurement": "ionophore-induced LTB4 production in mouse blood ex vivo", "setting": "[4]", "value": "caused inhibition"},
      {"measurement": "ionophore-induced LTB4 production in rat peritoneum in vivo", "setting": "[5]", "value": "caused inhibition"}
    ]},
    {"smiles": "CC(c1cc2ccccc2s1)N(O)C(N)=O", "note": "(centres unmarked) [zileuton]", "values": [
      {"measurement": "effects in atopic dermatitis", "setting": "atopic dermatitis", "value": "beneficial effects"},
      {"measurement": "pruritus in Sjögren-Larsson syndrome patients", "setting": "pruritus", "value": "relieving the pruritus"}
    ]}
  ]
}
